# From patent US5336485A, “Method for protecting animals against tacrine induced cytotoxic injury using sterol compounds” (priority 1993, dated 1994)
# Counter-ions that a name gives are not always drawn.
# How the values were obtained:
# rat hepatocytes [1] = assay: EMS-induced cytotoxicity (LDH leakage/cell death) in rat hepatocyte suspensions; details: for Cell Death: 50 mM EMS, 5 Hrs, alpha-TS 25, methyl ester 50, cholesteryl succinate 100, monomethyl/dimethyl succinate 250 μM; for inhibition at 25 µM: Rattus norvegicus, Hepatocyte
# Method: To determine if alpha-TS is a cytoprotective agent under physiological conditions, liver cells were incubated with Waymouth's medium containing approximately 1 mM extracellular Ca^2+ in the presence and absence of alpha-TS.
# (§1) At each time-point, rapid separation of viable from non-viable hepatocytes and medium was accomplished by the dibutyl phthalate centrifugation method. Cell viability was monitored hourly by measuring LDH leakage with a Cobas Analyzer and intracellular [K^+ ]with a flame photometer. LDH was routinely measured in the medium while intracellular K^+ was measured in the 10% perchloric acid lysate of viable cells. Lipid peroxidation was determined by measuring TBA reactants in the medium. […] The samples were diluted with 0.3 ml 1% ascorbate in 0.1 M SDS, 0.4 ml ethanol, sonicated and extracted once with 0.8 ml hexane. Next, the hexane extract was evaporated to dryness with N2, the residue dissolved in 2.5% ascorbate in methanol (1 ml) and analyzed (100 μl) by high-performance liquid chromatograph (HPLC). […] The mobile phase, 95% MeOH was run isocratically and the HPLC retention times for delta and alpha-tocopherol were approximately eleven and sixteen minutes, respectively. […] Following the addition of 0.2 ml 4 M HC1, the neutralized KOH-MeOH extracted with 0.8 ml hexane. […] A standard curve for each tocopherol congener was run with every assay. […] Only viable cells were monitored in the laboratory procedures.
# To determine the relative cytoprotective potency of various tocopherol derivatives, the effect of varying doses of a tocopherol analog on the protection against EMS-induced toxicity was examined in vitro on rat hepatocyte suspensions. Specifically, the following ionizable tocopherol congeners were tested: alpha-TS, alpha tocopheryl glutarate (alpha-TG), and alpha tocopheryl phosphate (alpha-TP). […] 0.1 nmoles is the lower detection limit.
# In vitro experiments were conducted with a variety of different tocopherol and succinate analogs to determine which were protective against EMS induced toxicity. After five hours of incubation with 50 mM EMS and 25μM of a tocopherol or succinate analog, cytoprotection was determined by comparing the percentage of LDH leakage from control hepatocytes (vehicle only, assumed 100% protection) with the EMS only treated cells (assumed 0% protection).
# An in vitro experiment with rat hepatocyte suspensions was performed to determine the effect of esterase inhibitors on alpha-TS.
# (§2) Rat hepatocyte suspensions were subjected to 50 mM EMS and the percentage of cell death, the percentage of intracellular K^+ (a metabolic parameter as discussed above), the depletion of ATP and the effect on lipid peroxidation were monitored.
# rat hepatocytes [2] = assay: EMS-induced lipid peroxidation in rat hepatocyte suspensions; format: cell-based; details: 50 mM EMS
# Method: as §1, §2
# male Sprague-Dawley rats = assay: CCl4 induced lethality in rats; format: in vivo, rat
# liver [3] = assay: CCl4 induced hepatotoxicity in rats (serum AST/ALT); format: in vivo, rat; details: for Serum AST Levels: listed as Cholesteryl Succinate free acid
# How it was run: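 Male Sprague-Dawley rats received test compounds i.p. at 100 mg/kg 20–24 h before oral CCl4 (2.9 g/kg or 1 g/kg). Serum AST and ALT were measured 48 h after CCl4 challenge.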
# CDF1 mice = assay: Doxorubicin lethality in CDF1 mice (normal tissue); format: in vivo, mouse; details: 100 mg/kg ip 20 h prior, DOX 10, 15, 20, 25 mg/kg
# Method: (§3) The experiments were conducted in accordance with NCI Protocol 1,100. FIGS. 8a-d show the experimental results obtained when male CDF1 mice (n=6) received either vehicle only or 100mg/kg body weight i.p. dose of either alpha-TS or cholesteryl succinate 20 hours prior to DOX administration. FIGS. 8a-d respectively show the results obtained when the mice received 10, 15, 20, and 25 mg DOX/kg body weight. […] FIGS. 9a-d show the experimental results obtained when male CDF1 mice ([…]) were injected (i.p.) with 10^6 murine L1210 leukemia cells followed immediately by an injection of alpha-TS tris salt (100 mg/kg, i.p.) or saline injection (vehicle), and twenty hours later (Day=0) each mouse in three of the groups was i.p. injected with 15, 20, or 25 mg DOX/kg body weight ([…]). Survival was monitored for twenty days.
# liver [4] = assay: THA-induced hepatotoxicity in rats (serum AST); format: in vivo, rat; details: 100 mg/kg ip
# Method: FIGS. 10 and 11 show the results of in vivo experiments where male Sprague-Dawley rats were given an oral dose of 15 or 30 mg THA/kg body weight, respectively. […] The serum AST levels were determined with respect to time after the THA challenge.
# L1210 leukemia cells [5] = assay: Doxorubicin in L1210 leukemia bearing CDF1 mice; format: in vivo, mouse; details: DOX 10 mg/kg
# Method: as §3
# liver [6] = assay: Acetaminophen-induced hepatotoxicity in rats (AST/ALT); format: in vivo, rat
# Method: In vivo experiments were performed to determine if alpha-TS administration protects the liver from the hepatotoxic effects of acetaminophen. Acetaminophen is a commonly used analgesic that is metabolized to a reactive intermediate. […] The other group of male Sprague-Dawley rats received only the acetaminophen challenge. Forty eight hours after the challenge the rats were sacrificed and the levels of aspartate aminotransferase (AST) and alanine aminotransferase (ALT) were measured.
# FIGS. 10 and 11 show the results of in vivo experiments where male Sprague-Dawley rats were given an oral dose of 15 or 30 mg THA/kg body weight, respectively. In the experiments, one group of rats was provided with an i.p. dose of 100 mg cholesteryl succinate tris salt/kg body weight 20 hours prior to the THA challenge, another group of rats only received the THA challenge, and the last group of rats acted as a control and were not challenged. The serum AST levels were determined with respect to time after the THA challenge.
# [7] = tested on: L1210 murine leukemia cells; assay: Inhibition of L1210 leukemia cell growth in vitro; format: cell-based, mouse
# Method: Similar in vitro experiments were conducted with cholesteryl succinate tris salt and alpha-TS tris salt.
# rat hepatocytes [8] = assay: Cellular alpha-tocopherol and tocopherol ester content of rat hepatocytes; details: 25 μM, Table 2
# Method: as §1
# The hepatocytes were subsequently exposed to 50mM EMS for three hours.
# [9] = Tissue distribution of alpha-tocopherol and alpha-tocopherol ester in rats; format: in vivo, rat; details: 100 mg/kg ip, 24 h
# Method: 100 mg/kg body weight of a tocopherol analog was administered to Sprague-Dawley rats using a peanut oil:ethanol vehicle (3:2). Twenty four hours later the rats were sacrificed and the accumulation of the tocopherol analog in the liver was determined.
# A similar in vivo experiment to that discussed in conjunction with Table 5 was performed to determine if other tissues accumulate alpha-TS. Male Sprague-Dawley rats were given a 100 mg/kg dose of alpha-TS using a variety of chemical forms and vehicles. A variety of techniques were used to administer the alpha-TS. Twenty four hours later the rats were sacrificed and the tissues were tested for alpha-TS accumulation.
# variety of cell types = details: cited from earlier work
# L1210 leukemia cells [10] = details: 100 mg/kg ip
# rat hepatocytes [11] = assay: Intracellular K+ of rat hepatocytes exposed to EMS; format: cell-based; details: 50 mM EMS, 5 Hrs; concentrations as cell death (Table 15)
# Text: Medzhradsky, Biochem. Med. 13:164 (1975), has noted that the cell's ability to maintain its intracellular concentration of potassium (K^+) is an excellent indicator of the metabolic integrity of the cell. A concentration gradient exists for K^+ with greater concentrations found intracellularly. To maintain this gradient, the cell is dependent on the action of the Na^+ -K^+ ATPase pump and an adequate supply of ATP. As cellular ATP levels decline, the ATPase pump is unable to maintain the gradient resulting in the loss of intracellular K^+ by equilibration with the extracellular space. Because the maintenance of cellular metabolic processes is essential to the continual repair and survival of cells, organ systems, and organisms, the effect of alpha-TS on the metabolic integrity of rat liver cells during a toxic insult was investigated by measuring intracellular K^+ levels. […] At each time-point, rapid separation of viable from non-viable hepatocytes and medium was accomplished by the dibutyl phthalate centrifugation method. Cell viability was monitored hourly by measuring LDH leakage with a Cobas Analyzer and intracellular [K^+ ]with a flame photometer. […] Lipid peroxidation was determined by measuring TBA reactants in the medium. […] Alltech, Avondale, Pa.). […] Following the addition of 0.2 ml 4 M HC1, the neutralized KOH-MeOH extracted with 0.8 ml hexane. […] A standard curve for each tocopherol congener was run with every assay. […] Only viable cells were monitored in the laboratory procedures.
# [12] = tested on: gluconeogenesis or ATP production; details: cited from earlier work
# [13] = 100 mg/kg, single dose 24 h prior, CCl4 […]
# [14] = 100 mg/kg ip 20 h prior, 48 h after 1 g/kg CCl4 (Table 20)
# [15] = 100 mg/kg ip, 48 h after 1 g/kg CCl4 (Table 33)
# [16] = 100 mg/kg ip, no CCl4 (Table 20)
# [17] = 100 mg/kg ip, no CCl4 (Table 33)
# [18] = 100 mg/kg ip 20 hrs prior, 48 h after 2 g/kg AP (Table 23)
# [19] = rat plasma, 100 mg/kg ip 24 h prior, 48 h after […] CCl4
# [20] = 100 mg/kg ip 20 h prior, 48 h after 1 g/kg CCl4 (Table 27)
compound,measurement,setting,value
CC(C)CCC[C@@H](C)[C@H]1CC[C@H]2[C@@H]3CC=C4C[C@@H](OC(=O)CCC(=O)O)CC[C@]4(C)[C@H]3CC[C@]12C [Cholesteryl Succinate],Cell Death,rat hepatocytes [1],48 ± 4%
same,inhibition at 25 µM,"rat hepatocytes [1]; 5 h, read-out: Percent Cytoprotection",30 ± 22%
same,Lipid Peroxidation,"rat hepatocytes [2]; 5 Hrs, concentrations as cell death (Table 15)",11.3 ± 4.2 nmolMDA/10^6 cells
same,Days Survived After CCl4 Treatment,male Sprague-Dawley rats; [13],> 7 days
same,Serum AST Levels,"liver [3]; 100 mg/kg ip 20 h prior, 24 hrs after 2 g/kg CCl4 (Table 26)",1.84 ± 1.13 10^3 units/L
same,Serum AST Levels,"liver [3]; 100 mg/kg ip 20 h prior, 48 hrs after 2 g/kg CCl4 (Table 26)",1.90 ± 2.64 10^3 units/L
same,"survival after DOX, normal mice (FIGS. 8a-d)",CDF1 mice,survived significantly longer
same,protection against THA hepatotoxicity (FIG. 10),liver [4]; THA 15 mg/kg,protects against the hepatotoxicity resulting from THA
same,protection against THA hepatotoxicity (FIG. 11),liver [4]; THA 30 mg/kg,protects against the hepatotoxicity resulting from THA
"COc1cccc2c1C(=O)c1c(O)c3c(c(O)c1C2=O)C[C@@](O)(C(=O)CO)C[C@@H]3O[C@H]1C[C@H](N)[C@H](O)[C@H](C)O1 [DOX, doxorubicin, reference compound]",survival of tumor bearing mice given DOX,L1210 leukemia cells [5],dramatically increased
"O=C(O)CCC(=O)O [Tris Succinate, reference compound]",ALT,liver [3]; [14],3.617 ± 0.858 10^3 units/L
same,AST,liver [3]; [14],11.22 ± 3.15 10^3 units/L
same,ALT,liver [3]; [15],2.135 ± .881 10^3 units/L
same,AST,liver [3]; [15],8.32 ± 2.65 10^3 units/L
same,ALT,liver [3]; [16],0.048 ± 0.005 10^3 units/L
same,AST,liver [3]; [16],0.11 ± 0.02 10^3 units/L
same,ALT,liver [3]; [17],0.058 ± .001 10^3 units/L
same,AST,liver [3]; [17],0.15 ± 5.02 10^3 units/L
same,Serum ALT Level,liver [6]; [18],623 ± 339 Units/L
same,Serum AST Level,liver [6]; [18],2286 ± 1190 Units/L
same,Serum ALT Level,"liver [6]; 100 mg/kg ip, no AP (Table 23)",50 ± 7 Units/L
same,Serum AST Level,"liver [6]; 100 mg/kg ip, no AP (Table 23)",93 ± 34 Units/L
same,growth rate of L1210 cells (FIG. 7),[7],no effect on the growth rate
"CC(=O)Oc1c(C)c(C)c2c(c1C)CC[C@@](C)(CCC[C@H](C)CCC[C@H](C)CCCC(C)C)O2 [alpha-TA, d-alpha-tocopherol acetate, reference compound]",inhibition at 25 µM,"rat hepatocytes [1]; read-out: % Protection, 25 μM, 50 mM EMS",12%
same,inhibition at 25 µM,"rat hepatocytes [2]; Rattus norvegicus, Hepatocyte, 25 μM",14%
same,Cellular Tocopherol ester,rat hepatocytes [8],1.7 nmoles/10^6 cells
same,Cellular alpha-T,rat hepatocytes [8],0.3 nmoles/10^6 cells
same,Protection from CCl4,male Sprague-Dawley rats; 100 mg/kg ip (Table 5),No
same,Days Survived After CCl4 Treatment,"male Sprague-Dawley rats; 100 mg/kg ip, 24 h prior, CCl4 2.2 g/kg",> 7 days
same,Days Survived After CCl4 Treatment,"male Sprague-Dawley rats; 100 mg/kg ip, 24 h prior, CCl4 3.8 g/kg",2 days
same,Days Survived After CCl4 Treatment,"male Sprague-Dawley rats; 100 mg/kg ip, 24 h prior, CCl4 5.0 g/kg",2 days
same,Days Survived After CCl4 Treatment,"male Sprague-Dawley rats; 100 mg/kg ip, 24 h prior, CCl4 […]",3 days
same,ALT,liver [3]; [19],"6,108 ± 417 Units/L"
same,AST,liver [3]; [19],"20,233 ± 3525 Units/L"
same,Liver Concentration Ester,[9],92 ± 6 nmol/g
same,protection against carcinogenic effects of radiation and cancer causing chemicals,variety of cell types,ineffective
"Cc1c(C)c2c(c(C)c1OC(=O)CCC(=O)O)CC[C@@](C)(CCC[C@H](C)CCC[C@H](C)CCCC(C)C)O2 [alpha-TS tris salt, Alpha tocopheryl succinate tris salt]",ALT,liver [3]; [14],0.371 ± 0.246 10^3 units/L
same,AST,liver [3]; [14],1.86 ± 1.11 10^3 units/L
same,ALT,liver [3]; [20],0.52 ± 0.16 10^3 units/L
same,AST,liver [3]; [20],0.79 ± 0.26 10^3 units/L
same,inhibition in vivo at 100 mg/kg,"liver [3]; Rattus norvegicus, 100 mg/kg ip 20 h prior, 48 h after 1 g/kg CCl4, read-out: % Hepatoprotection",80%
same,growth rate of L1210 cells (FIG. 7),[7],significantly suppress the growth rate of L1210 cells
same,Survival Time,L1210 leukemia cells [10],7.6 ± 0.6 days
"COC(=O)CCC(=O)Oc1c(C)c(C)c2c(c1C)CCC(C)(CCCC(C)CCCC(C)CCCC(C)C)O2 (stereo not drawn) [methyl ester of alpha-TS, Alpha-Tocopherol Succinate Methyl Ester]",Cell Death,rat hepatocytes [1],30 ± 1%
same,inhibition at 25 µM,"rat hepatocytes [1]; 5 h, read-out: Percent Cytoprotection, 25 μM, 50 mM EMS, 5 h",22 ± 15%
same,% Initial Intracellular [K+],rat hepatocytes [11],67 ± 4 % Initial
same,Days Survived After CCl4 Treatment,male Sprague-Dawley rats; [13],> 7 days
"COC(=O)CCC(=O)O [methyl ester succinate, methyl ester of succinate]",concentration required to stimulate gluconeogenesis or ATP production,[12],Millimolar concentrations
